# According to US11154522B2, “Compositions and methods for treating acne vulgaris” (priority 2016, dated 2021):
# Where two headings read alike, the source gives them in different places.
# Experiment: Delivery of succinic acid to epidermis and dermis in presence of salicylic acid, Franz diffusion cells, different skin sample (Example 2)
# Protocol: Skin from a single donor was stored frozen at −20° C. until needed. The skin was removed from the freezer, allowed to equilibrate to room temperature, and then cut to ˜2 cm×2 cm pieces before testing. FDCs with a 3.3 ml receiver volume and 0.55 cm^2 diffusional area were used. De-aerated isotonic phosphate buffered saline solution at pH 7.4 (PBS) containing 0.01% NaN3 was used as a solvent system for the receptor well medium (“Receptor Fluid”). Receptor wells were filled with the Receptor Fluid. The upper flange of the FDC receptor well was coated with vacuum grease to ensure a complete seal. Pieces of skin were mounted on the receptor cells, the conventional donor wells applied, and the assembly clamped together with uniform pressure using a pinch clamp. After assembly of the FDC, the skin was allowed to hydrate for 20 minutes in contact with the receptor fluid. Any FDCs that evidenced any leakage during this period were discarded. The integrity and quality of the skin was tested prior to application of the test formulations through measurement of the transdermal flux of tritiated water. Skin pieces evidencing an excessively high tritiated water flux were discarded and the tritiated water fluxes of accepted skin pieces was used to guide the distribution of formulation samples over the skin piece set. After removal of the tritiated water samples from the donor wells, the clamp and donor wells were removed. The skin was tapped dry with a KimWipe® and the receptor well solutions was replenished with fresh receptor well medium. Six replicates of each of the formulations were examined, in a batch of 36 FDC's; each test formulation was applied at a quasi-infinite dose of 20 μL cm^2 on skin maintained at 32° C. throughout the experiment. The Receptor Fluid was stirred with a magnetic stir bar throughout. A sample was abstracted from each receptor well at each of 4, 8 and 20 h, the receptor well being replenished with fresh Receptor Fluid. The concentration of succinic acid in each receptor well sample was assayed by a verified LC-MS analytical method. At the end of the experiment (20 h), residual formulation was removed from the skin exterior with a pipette. The FDCs were then be disassembled and the skin washed twice with EtOH-Water 50-50 and wiped dry with a KimWipe®. The successive topmost layers of the stratum corneum were removed by three (3) times applying cellophane tape to the skin and then pulling off the tape. Tape strippings were discarded, the material present in those peripheral layers being considered absorbed only superficially. The epidermal and dermal layers were separated, using mild heating if required. The epidermal and dermal sections were placed into 4 ml glass vials. DMSO was used as an extraction solvent (“Extraction Solvent”) for succinic acid from epidermal and dermal tissue. Two ml of the Extraction Solvent was added to each vial and the vials allowed to incubate for 24 h. At the end of the extraction period, aliquots of the Extraction Solvent were drawn, filtered and analyzed by LC-MS.
# A topical formulation was prepared that contained 2% succinic acid, 1% salicylic acid (acne API), 15% ethanol, 15% propylene glycol, 3% Brij 30 and 15% of dimethyl isosorbide. The delivery of succinic to epidermis and dermis was tested as described in Example 1 in an independent experiment, using a different skin sample.
compound,measurement,setting,value
Polysorbate 20,enhancement of delivery of succinic acid by other penetration enhancing molecules,present in the formulation instead of Brij30 and dimethyl isosorbide,did not result in enhanced delivery of succinic acid
CCOCCOCCO [Transcutol P],enhancement of delivery of succinic acid by other penetration enhancing molecules,,did not result in enhanced delivery of succinic acid
O=C(O)CCC(=O)O [succinic acid],succinic acid dose delivered to epidermis and dermis,"human, 22 h, 2 %, pH 7.4",33.22%
same,fold lower amount delivered in absence vs presence of Brij30 and dimethyl isosorbide,"human, 22 h, pH 7.4",4.4 fold
same,succinic acid dose delivered to epidermis and dermis,"human, 22 h, pH 7.4",7.51%
Polysorbate 80,enhancement of delivery of succinic acid by other penetration enhancing molecules,,did not result in enhanced delivery of succinic acid
Capric tryiglyceride GTCC,enhancement of delivery of succinic acid by other penetration enhancing molecules,,did not result in enhanced delivery of succinic acid
